Assay results reported in US5762953A, “Transdermal propentofylline compositions for the treatment of Alzheimers disease” (Theratech, Inc., priority 1996, dated 1998).

Tests used:
[1] = oral treatment; cited from earlier work
[2] = cited from earlier work
nucleoside transport = conditions: cerebral ischemia; cited from earlier work
[3] = cited from earlier work; remark: listed apart in the source
[4] = In vitro skin flux study of reservoir formulations, heat separated human epidermal membrane, modified Franz diffusion cells; type: in vitro ADME
Description: Two reservoir type formulations (I and II) were prepared for the determination of initial propentofylline skin flux rates.
Approximately 4.0 ml of a base solution was prepared in a 7 ml glass vial. This solution consisted of 50% v/v of ethanol, USP; 15% v/v purified water (18 Mohm-cm); 30% v/v glycerin, USP; 1% v/v of glycerol monooleate (GMO, "Myverol® 18-99); 1% v/v methyl laurate (ML). To one solution was added sufficient propentofylline provide a concentration of about 72 mg/ml of solution (Formulation I) and to the other was added sufficient propentofylline to provide a concentration of about 131 mg/ml of solution (Formulation II). To each solution was added about 3% v/v of hydroxypropyl methylcellulose (Methocel® E10M) as a thickening agent. […]
Dermatomed (≈[…]) full thickness human cadaver skin was obtained from skin banks. […] Information on age, race, sex and anatomical site of the donor skin was recorded when available.
[…] skin flux studies were conducted using a heat separated human epidermal membrane and modified Franz diffusion cells. […] At predetermined time points, the entire contents of the receiver compartment were collected for drug quantitation,and the receiver compartment refilled with fresh receptor medium, taking care to eliminate any air bubbles at the skin/solution interface. […]

Q: With `CCCn1cnc2c1c(=O)n(CCCCC(C)=O)c(=O)n2C` [propentofylline, 1-(5'-oxohexyl)-3-methyl-7-propylxanthine] as the compound, how does the “most frequent side effects” value [1] read?
A: headaches, dizziness, gastrointestinal pain and nausea

Q: What about the “rate of deterioration / acute improvement of patient's condition” value ([2]; neuroprotective effect) of the same compound?
A: although not producing an acute improvement in the patient's condition, does cause a reduction in the rate of deterioration

Q: What about the “clinical parameters in dementia” value ([2]; placebo controlled trials, mild to moderate dementia) of the same compound?
A: positively influence clinical parameters in placebo controlled trials

Q: And the “nucleoside transport inhibition, neuroprotective effects” value (nucleoside transport)?
A: nucleoside transport inhibitor with neuroprotective effects in cerebral ischemia

Q: And the plasma propentofylline concentration ([3]; 2 hours following a single 300 mg oral dose, concluded from literature PK data)?
A: ~10 ng/mL

Q: What about the elimination half-life ([3]; humans) of the same compound?
A: 15 to 45 min

Q: What about the “hepatic first pass metabolism” value ([3]; humans) of the same compound?
A: extensive hepatic first pass metabolism primarily to inactive metabolites

Q: What about the “absolute bioavailability after oral administration” value ([3]; oral, humans) of the same compound?
A: 5-10%

Q: What about the “effect of food on bioavailability” value ([3]; oral, humans) of the same compound?
A: Drug interactions with food further reduce bioavailability

Q: What about the constant migration rate [4] of the same compound?
A: about 2 mg/cm^2 /24 h

Q: And the “sustained daily dosage provided by transdermal delivery” value [4]?
A: 30 mg
